In patent US20240024403A1, “Compositions and Methods for Managing Weight” (Unigen, Inc., priority 2012, published 2024):
Where “and” joins values, the source holds several entries; their conditions need not be identical. Equal values may be shown once. Entries after “also recorded” stand apart in the source; their conditions may differ.

Assays:
[1] = system: leptin; assay: Plasma leptin level in DIO mice (ELISA); type: in vivo
Experimental: (§1) Obese mice were treated with various three component compositions to test the anti-obesity and appetite effects of such compositions. Three component Composition 1 (Magnolia:Morus:Yerba Mate) produced according to the Example 38, three component Composition 2 (Magnolia:Morus:Mutamba) produced according to the Example 42, three component Composition 3 (Morus: Rosemary:Yerba Mate) produced according to the Example 39, and three component Composition 9 (Morus:Rosemary:Areca) produced according to the Example 41, were each separately administrated orally to DIO mice as described in the Example 48. The high fat diet (HFD) mice were divided into multiple treatment groups with a total of 10 animals per group. The mice were treated with one of the following: Composition 1 (1300 mg/kg/day), Composition 2 (1300 mg/kg/day), Composition 3 (1700 mg/kg/day), or Composition 9 (1700 mg/kg/day). Control groups included a normal diet group given vehicle only (ND, negative control), a high fat diet group given vehicle only (HFD, negative control), an orlistat group (ORI, 40 mg/kg, 2 times/day, positive control), and a sibutramine group (10 mg/kg, 1 time/day, positive control). Body weight and feed intake were measured daily for 2 weeks after treatment and then twice a week until the end of the 7 week study. At week 2 and week 7 after treatment, mice were fasted for 16 hours and then five animals were examined to measure plasma concentrations of leptin and ghrelin. Leptin and ghrelin levels were measured by using commercial ELISA kits specific for leptin or ghrelin (Millipore Co., Billerica, MA) according to the manufacturer's instructions. Measurements were taken using a microplate reader (Victor™ X3, PerkinElmer Inc., USA) and analyzed with PerkinElmer 2030 workstation computer software.

[2] = 14-day study in high-fat-diet fed C57BL/6J mice; type: in vivo; conditions: 30 mg/kg daily oral, 14 days
Description: A 14-day study was used to evaluate the effect of Mutamba EtOH extract fraction 84/F6 on body weight gain in high-fat-diet (HFD) fed C57BL/6J mice. Male C57BL/6J mice at the age of 6 weeks were purchased from Charles River Laboratories (Wilmington, MA) and acclimated for one week. On the day 0 (treatment start), body weights were taken for all the mice and randomly assigned to a group of four treatment groups as follows: (1) 8 mice/group received positive control=Alli; (2) 15 mice/group received Mutamba fraction 84/F6; (3) 8 mice/group received vehicle only (0.5% carboxymethyl cellulose) given to HFD control; and (4) 8 mice/group received vehicle only given to untreated normal diet control. Mice received a daily oral dose of Alli at 30 mg/kg and Mutamba 84/F6 at 1 g/kg for 14 days. Once mice received their first respective dose, they were provided ad libitum a 60% kcal high fat-diet, except for the normal diet group. Body weights were taken daily for the duration of study except on weekends. […] Blood glucose levels were measured using the Contour blood glucose monitoring kit (Bayer Health Care). Total triglyceride and cholesterol levels were measured using the CardioChek Analyzer with PTS panel test strips (Polymer Technology System, Inc, Indianapolis, IN).

[3] = High fat diet induced obesity (DIO) rat model; type: in vivo, Spraue-Dawley rats; parameters: NASH (sum) / NSAH (sum): scale not given here; Epididymal fatty tissue weight / Retroperitoneal fatty tissue weight / Total Fat / Epididymal Fat, absolute weight / Retroperitoneal Fat, absolute weight: unit not given here
Experimental: Male Spraue-Dawley rats, age 4-6 weeks (OrientBio, Inc.; Seongnam, Korea) were housed individually in Polycarbonate cages in a room with a 12 hr:12 hr light-dark cycle and an ambient temperature of 24° C. All the rats were fed a commercial chow diet for 1 week after arrival in the animal facility. Rats were then divided into normal and obesity groups and fed with normal diet (ND) and high fat diets (HFD) respectively. The HFD group was divided into multiple treatment groups: a high fat diet vehicle group (HFD), an orlistat (purchased as OTC drug Alli®) positive control treatment group (ORI, 80 mg/kg of animal weight, 2 times/day). In some examples, sibutramine was used as a positive control (SIB, 3 mg/kg for rat studies and […] for mice studies).
Body weight was measured once or twice per week and feed intake was measured twice per week. Body weight gain was determined for each study group by measurement of the body weight difference for each study group between each successive week of the study. At the end of the experimental period, following a 12-h fasting period, the animals were anesthetized with ether, and blood was drawn from the abdominal vein. Liver and kidney and adipose tissues (epididymal, retroperitoneal, perirenal adipose tissues) were removed from each animal, rinsed with physiological saline, and weighted. Serum concentrations of glucose, total cholesterol and LDL-cholesterol were determined using automatic analyzer (INTEGRA 400, Roche, Germany). Statistical significance of test results was performed by Student's t-test.

[4] = system: ghrelin; assay: Plasma active ghrelin level in DIO mice (ELISA); type: in vivo
Experimental: as §1

[5] = DIO mice plasma, 2-week treatment
[6] = DIO mice plasma, 7-week treatment
[7] = DIO rats, ORI 80 mg/kg, 55 day study, mean
[8] = DIO rats, blood at end of study, ORI 80 mg/kg, mean
[9] = DIO rats, liver pathology, ORI 80 mg/kg, mean
[10] = DIO rats, liver pathology score, ORI group, mean

Structure (SMILES): CCCCCCCCCCC[C@@H](C[C@@H]1OC(=O)[C@H]1CCCCCC)OC(=O)[C@H](CC(C)C)NC=O [ORI, orlistat]
- Leptin (ng/ml) 2-week [1, 5]: 11.6 ± 0.06 ng/mL
- Leptin (ng/ml) 7-week [1, 6]: 19.0 ± 0.24 ng/mL
- plasma leptin level vs HFD group ([1]; week 2 and week 7, Composition 2 1300 mg/kg/day, orlistat 40 mg/kg 2 times/day, sibutramine 10 mg/kg 1 time/day): significantly reduced leptin level after 2 weeks of treatment
- body weight gain vs vehicle treated HFD group [2]: decrease in weight gain only on day 14 of treatment
- fasting blood glucose, total cholesterol, triglyceride vs vehicle treated HFD group [2]: statistically significant higher levels of fasting triglyceride
- Body Weight Gain [3, 7]: 1.22 g/day
- Food Intake [3, 7]: 25.71 g/day
- Food Efficiency Ratio (FER) ([3]; DIO rats, ORI 80 mg/kg, 55 day study, body weight gain/food intake): 0.05
- Weight Gain ([3]; DIO rats, ORI 80 mg/kg, day 3, mean): 2.80
- Weight Gain ([3]; DIO rats, ORI 80 mg/kg, day 7, mean): 1.04
- Weight Gain ([3]; DIO rats, ORI 80 mg/kg, day 10, mean): 0.82
- Weight Gain ([3]; DIO rats, ORI 80 mg/kg, day 14, mean): 3.40
- Weight Gain ([3]; DIO rats, ORI 80 mg/kg, day 17, mean): 3.34
- Weight Gain ([3]; DIO rats, ORI 80 mg/kg, day 21, mean): 15.89
- Weight Gain ([3]; DIO rats, ORI 80 mg/kg, day 24, mean): 19.89
- Weight Gain ([3]; DIO rats, ORI 80 mg/kg, day 28, mean): 28.19
- Weight Gain ([3]; DIO rats, ORI 80 mg/kg, day 31, mean): 33.33
- Weight Gain ([3]; DIO rats, ORI 80 mg/kg, day 35, mean): 38.43
- Weight Gain ([3]; DIO rats, ORI 80 mg/kg, day 37, mean): 43.95
- Weight Gain ([3]; DIO rats, ORI 80 mg/kg, day 42, mean): 49.06
- Weight Gain ([3]; DIO rats, ORI 80 mg/kg, day 45, mean): 59.88
- Weight Gain ([3]; DIO rats, ORI 80 mg/kg, day 49, mean): 63.68
- Weight Gain ([3]; DIO rats, ORI 80 mg/kg, day 52, mean): 71.12
- Weight Gain ([3]; DIO rats, ORI 80 mg/kg, day 55, mean): 68.11
- Epididymal fatty tissue weight ([3]; DIO rats, ORI 80 mg/kg, mean): 17.87
- Perirenal fatty tissue weight ([3]; DIO rats, ORI 80 mg/kg, mean): 6.11
- Retroperitoneal fatty tissue weight ([3]; DIO rats, ORI 80 mg/kg, mean): 19.21
- Total Fat ([3]; DIO rats, ORI 80 mg/kg, sum of epididymal, retroperitoneal and perirenal fat): 43.19
- ALP [3, 8]: 480.16 U/L
- ALT [3, 8]: 35.65 U/L
- AST [3, 8]: 146.39 U/L
- LDL-C [3, 8]: 10.63 mg/dL
- T-chol [3, 8]: 110.13 mg/dL
- TG [3, 8]: 216.38 mg/dL
- Hepatocellular ballooning (0-2) [3, 9]: 0.675 and 0.625
- Lobular Inflammation (0-3) [3, 9]: 1.500
- NASH (sum) [3, 9]: 2.875
- Steatosis (0-3) [3, 9]: 0.750
- Epididymal Fat, absolute weight ([3]; DIO rats, ORI group, mean): 17.87
- FER (Food efficiency ratio) ([3]; DIO rats, ORI group, mean): 0.05
- Food Intake ([3]; DIO rats, ORI group, mean): 25.71 g/day
- LDL-C ([3]; DIO rats, ORI group, mean): 10.63 mg/dL
- Perirenal Fat, absolute weight ([3]; DIO rats, ORI group, mean): 6.11
- Retroperitoneal Fat, absolute weight ([3]; DIO rats, ORI group, mean): 19.21
- T-chol ([3]; DIO rats, ORI group, mean): 110.13 mg/dL
- TG ([3]; DIO rats, ORI group, mean): 216.38 mg/dL
- Total Fat ([3]; DIO rats, ORI group, mean): 43.19
- Weight Gain ([3]; DIO rats, ORI group, mean): 1.22 g/day
- Weight Gain ([3]; DIO rats, day 3, ORI group, mean): 2.80
- Weight Gain ([3]; DIO rats, day 7, ORI group, mean): 1.04
- Weight Gain ([3]; DIO rats, day 10, ORI group, mean): 0.82
- Weight Gain ([3]; DIO rats, day 14, ORI group, mean): 3.40
- Weight Gain ([3]; DIO rats, day 17, ORI group, mean): 3.34
- Weight Gain ([3]; DIO rats, day 21, ORI group, mean): 15.89
- Weight Gain ([3]; DIO rats, day 24, ORI group, mean): 19.89
- Weight Gain ([3]; DIO rats, day 28, ORI group, mean): 28.19
- Weight Gain ([3]; DIO rats, day 31, ORI group, mean): 33.33
- Weight Gain ([3]; DIO rats, day 35, ORI group, mean): 38.43
- Weight Gain ([3]; DIO rats, day 37, ORI group, mean): 43.95
- Weight Gain ([3]; DIO rats, day 42, ORI group, mean): 49.06
- Weight Gain ([3]; DIO rats, day 45, ORI group, mean): 59.88
- Weight Gain ([3]; DIO rats, day 49, ORI group, mean): 63.68
- Weight Gain ([3]; DIO rats, day 52, ORI group, mean): 71.12
- Weight Gain ([3]; DIO rats, day 55, ORI group, mean): 68.11
- Hepatocellular ballooning (0-2) [3, 10]: 0.625
- Lobular Inflammation (0-3) [3, 10]: 1.500
- NSAH (sum) [3, 10]: 2.875
- Steatosis (0-3) [3, 10]: 0.750
- blood biochemistry parameters vs HFD group ([3]; orlistat 80 mg/kg, 2 times/day): no statistically significant decreases in any of the measured blood components; also recorded: did not show any statistically significant decreases in any of the measured blood chemistry components
- body weight gain vs HFD group ([3]; orlistat 80 mg/kg, 2 times/day): statistically significant decreases in body weight gain on day 7 through to day 55
- liver pathology (NASH score) vs HFD group ([3]; orlistat 80 mg/kg, 2 times/day): statistically significant decreases in Steatosis, Lobular Inflammation, Hepatocellular ballooning and NASH score
- organ and fat pad weights vs HFD group ([3]; orlistat 80 mg/kg, 2 times/day): statistically significant decreases in all categories of fat measurement; also recorded: statistically significant decreases in Epididymal Fat, Retroperitoneal Fat, Perirenal Fat and Total Fat
- weight gain per day, food intake per day, food efficiency ratio (FER) vs HFD group ([3]; orlistat 80 mg/kg, 2 times/day): statistically lower values than the HFD group for average Body Weight Gain per day, average Food Intake per day and Food Efficiency Ratio
- Active Ghrelin (pg/ml) 2-week [4, 5]: 1316.4 pg/mL
- Active Ghrelin (pg/ml) 7-week [4, 6]: 1353.7 pg/mL
- active ghrelin level vs HFD group ([4]; week 2 and week 7, orlistat 40 mg/kg 2 times/day, sibutramine 10 mg/kg 1 time/day): no effect on active ghrelin levels at either week 2 or week 7
